The test addresses PDZ1–3 (PDZ123) domains of PSD-95 (Rattus norvegicus, UniProt P31016). The test can be described thus: […]-1H HSQC NMR chemical shift titration. Format: binding.

A word on the Kd: it is the constant that tells how readily two partners part at equilibrium.

Chain of PDZ1–3 (PDZ123) domains of PSD-95 (P31016 61-393): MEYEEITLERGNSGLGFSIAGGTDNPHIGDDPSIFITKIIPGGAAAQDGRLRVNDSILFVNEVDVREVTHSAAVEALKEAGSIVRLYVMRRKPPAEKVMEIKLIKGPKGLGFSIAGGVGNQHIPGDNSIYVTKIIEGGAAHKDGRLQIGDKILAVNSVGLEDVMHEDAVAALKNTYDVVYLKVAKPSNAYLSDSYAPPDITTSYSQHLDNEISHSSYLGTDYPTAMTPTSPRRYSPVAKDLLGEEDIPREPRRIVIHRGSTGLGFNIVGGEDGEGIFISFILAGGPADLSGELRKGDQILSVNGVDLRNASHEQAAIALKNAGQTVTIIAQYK

As for `FC(F)OC(Cl)C(F)(F)F` (stereo not shown) [isoflurane], the Kd was around 3 mM.

The record behind these values is article PMC4366275 (Anesthesiology, 2015).
